Legend:
[1] = test system: NF-κB dependent transcription; assay: TNFα-induced activation of NF-κB in recombinant HeLa reporter cells (luciferase); assay type: cell-based
Source text: To test the ACE2 inhibitor GL1001 for anti-inflammatory activity relevant to IBD, effects of the compound on activation of NF-κB dependent transcription by TNFα were examined in recombinant reporter cells containing a construct with a luciferase reporter gene under control of NF-κB dependent regulatory sequences, thereby allowing detection of NF-κB dependent transcription by measuring reporter enzyme using a conventional luciferase activity assay based on detection of generated light.
In particular, HeLa cells (American Type Culture Collection) were grown in Dulbecco's modified Eagles medium (DMEM) supplemented with 10% fetal calf serum and transiently transfected with an NF-κB-luc construct (Stratagene, Inc.), as follows (with all incubation steps at 37 C unless otherwise indicated). Cells were seeded and grown to about 70% confluency in a 10 cm cell culture dish. Plasmid DNA (10 μg) was added to 1 ml serum free DMEM media in a tube. Fugene 6 transfection reagent (30 μl) (Roche) was then pipetted slowly into the tube and the contents were gently mixed by inversion. The mixture was incubated at room temperature for 15 minutes and then added dropwise to cells in one 10 cm dish. Following incubation for 24 hours, cells were detached from the plate with Trypsin-EDTA (Gibco-BRL), transferred to wells in a clear-bottom white 96-well test plate (Fisher) with 100 μl per well serum free DMEM, at a density of 3×10^4 cells per well, and allowed to attach overnight. Compound (GL1001) was then added to wells at a concentration of approximately 0, 0.008, 0.04, 0.2, 1.0 or 5.0 μM, followed immediately by addition of TNFα (R&D) to a final concentration of 20 ng/ml. After incubation for 6 hours, 100 μl of Bright-Glo Luciferase buffer (Promega, Cat# E2610) was added, and the plate was incubated at room temperature, with mild shaking, for 10 min. Bioluminescence was then measured using a Veritas luminometer (Turner BioSystems). Each plotted data point represents the average bioluminescence of 4 independent wells.

[2] = test system: NF-κB dependent transcription; assay: In vivo basal NF-κB dependent transcription in NF-κB::Luc reporter mice, abdominal imaging; details: 4 hours
Source text: GL1001 was further tested for in vivo anti-inflammatory activity by examining its effects on basal levels of NF-κB dependent transcription in mice engineered in the germline with a construct containing an NF-κB enhancer linked to a luciferase gene (i.e., NF-κB::Luc mice), such that this NF-κB reporter construct is present in all cells of the mice.
More particularly, transgenic NF-κB::Luc mice were generated using three NF-κB response elements from the Igκ light chain promoter fused to a firefly luciferase gene as described by Carlsen et al. (2002) J. Immunol. 168:1441-1446. Pronuclear microinjection of purified construct DNA was used to generate transgenic founders in the C57BL/6 XCBA/J background. Founders were subsequently back crossed to the C57BL/6 albino background. […] Signal data were also quantitated and archived using the Living Image® software. Photons of light were quantitated using an oval region of interest (ROI) of varying sizes depending on the procedure, as described further below.
To test for in vivo effects of GL1001 on basal levels of NF-κB dependent transcription, male NF-κB::Luc mice were subjected to quantitative in vivo imaging of the abdominal area (using a fixed ROI of 2.76×3.7 cm) as described above, immediately before, and at 2, […]

[3] = test system: dextran sulfate sodium (DSS) induced colitis in mice; assay: DSS induced colitis in NF-κB::Luc mice (Example 5); assay type: in vivo; details: 100 mg/kg s.c. per day
Source text: GL1001 was further tested for in vivo anti-inflammatory activity by examining its effects on dextran sulfate sodium (DSS) induced colitis in mice. […] See, e.g., Hollenbach et al. (2004) FASEB J. 18(13):1550-1552. See also Bryne et al. (2006), Current Opinion in Drug Discovery & Development 8(2):207-217 and sources cited therein. These pathologies include predominant left-sided colonic inflammation, prominent regeneration of the colonic mucosa cells with dysplasia leading to colon cancer, shortening of the large intestine, focal crypt damage, and frequent lymphoid hyperplasia in both biological systems. Further, according to Hollenbach et al (2004), supra, DSS-induced colitis in mice has a high value in assessing the efficacy of therapeutic agents commonly used in the treatment of colitis, since all therapeutically beneficial substances in human IBD were also shown to reduce the disease activity in this mouse model.
The study was designed with three groups: control (5 mice), 2.5% DSS alone (10 mice), and 2.5% DSS with GL1001 treatment (100 mg/kg subcutaneously per day) (10 mice). NF-κB::Luc mice were used to measure NF-κB activation as an indicator of inflammatory activity, as described above. In particular, organ specific luciferase activity was measured, in addition to body weight, fluid intake, occult fecal blood, organ weights and neutrophil infiltration (MPO assay). NF-κB::luc BL/6 albino background mice of 6-8 weeks of age were provided with 2.5% dextran sodium sulfate (DSS, MW 40,000; MP Biomedicals) in the drinking water. Mice were weighed, imaged and dosed with GL1001 daily. Fecal samples were collected from the bottom of the cages for each treatment group and tested for fecal consistency and occult blood using Hemocult Tape as directed by the manufacturer (Fisher Scientific) and fluid consumption was measured. At the conclusion of the study, the GI tract was removed, the various sections were cleaned and weighed, tissue samples were prepared for bioluminescent assays and myeloperoxidase (Myeloperoxidase assay kit, Cytostore) to look at neutrophil infiltration.
The mice were weighed and imaged at the time of daily GL1001 or vehicle control administration. Biophotonic images of the mice were acquired each day, as described above, with quantitative abdominal imaging results shown in FIG. 7. […] Water consumption was monitored for all of the animals and similar consumption rates indicate that DSS treated mice were all receiving similar amounts of DSS (FIG. 8).
Inflammatory bowel disease progression was monitored using an inflammatory bowel disease activity index which consists of the sum of percent weight loss, stool consistency and occult fecal blood divided by 3.

CC(C)C[C@H](N[C@@H](Cc1cncn1Cc1cc(Cl)cc(Cl)c1)C(=O)O)C(=O)O [GL1001, (S,S)-2-[1-carboxy-2-[3-(3,5-dichlorobenzyl)-3H-imidazol-4-yl]-ethylamino]-4-methylpentanoic acid]
inhibition of TNFα induced activation of NF-κB dependent transcription ([1]; 8 nM GL1001, TNFα 20 ng/ml, 6 hours): over 80% | maximal inhibition of TNFα induced activation of NF-κB dependent transcription ([1]; 0.2 μM GL1001, TNFα 20 ng/ml, 6 hours): over 95% | TNFα induced activation of NF-κB dependent transcription ([1]; all tested concentrations (0.008-5.0 μM)): significantly inhibited | inhibition of basal in vivo levels of NF-κB dependent transcription in abdominal ROI ([2]; 300 mg/kg subcutaneous, p<0.01): over 40% | inhibition of basal in vivo levels of NF-κB dependent transcription in abdominal ROI ([2]; both lower doses, subcutaneous): lesser but still significant extents | inflammatory bowel disease activity index ([3]; between days 3 and 8): slight delay | reduction in body weight ([3]; between days 4 and 9, vs DSS only): significantly delayed | NF-κB-driven luciferase expression, abdominal imaging, DSS only vs DSS+GL1001 ([3]; from study day 6): non-statistically significant divergence | DSS induced organ weight increases (organ weight/body weight ratio) ([3]; cecum and large intestine (colon)): completely prevented
